Consider three molecules from patent publication US20080051315A1 (priority 2003, published 2008).

In experiment [1] the test system is pyramidal neurons in slices from GRPR knockout mice. The experiment is classed as cell-based, mouse.
A further experiment has as its target GRPR (Mus musculus, UniProt P21729). Type of experiment: cell-based.
For a further experiment, the system named is GABAA receptors. As to the kind of experiment: block of sIPSCs in pyramidal neurons of the lateral amygdala. Type of experiment: cell-based, mouse. To be noted: picrotoxin 50 uM; n=10; holding potential -70 mV. As for the experimental part:
Amygdala slices (250-300 um) were prepared from 3-5 week old control and GRPR knockout mice (littermates) with a vibratome. Slices were continuously superfused in solution containing (in mM): 119 NaCl, 2.5 KCl, 2.5 CaCl2,1.0 MgSO4, 1.25 NaH2PO4, 26.0 NaHCO3, 10 glucose, and equilibrated with 95% O2 and 5% CO2 [pH 7.3-7.4] at room temperature. Whole-cell recordings of evoked compound EPSCs or spontaneous GABA-mediated IPSCs were obtained from pyramidal cells in the lateral amygdala under visual guidance (DIG/ infrared optics) with an EPC-9 amplifier and Pulse v8.09 software (HEKA Elektronik). […] Series resistance was monitored throughout experiment and was in a range of […]. […] The EPSC amplitudes were measured as the difference between the mean current during a prestimulus baseline and the mean current over a 2 ms-window at the peak of the response. […]
The spontaneous IPSCs were recorded on videotape for off line analysis in the presence of 20 uM CNQX. Data were analyzed with the Mini Analysis Program v5.2.4 (Synaptosoft Inc., Decatur, Ga.; Bolshakov et al., 2000).
We recorded spontaneous inhibitory postsynaptic currents (sIPSCs) in the pyramidal neurons having blocked the AM PA (a-amino-3-hydroxy-5-methyl-4-isoxazolepropionic acid) receptor-mediated responses (FIG. 2) with CNQX (6-cyano-7-nitroquinoxaline-2,3-dione, 20 uM).

GRPR, sequence (P21729 whole entry): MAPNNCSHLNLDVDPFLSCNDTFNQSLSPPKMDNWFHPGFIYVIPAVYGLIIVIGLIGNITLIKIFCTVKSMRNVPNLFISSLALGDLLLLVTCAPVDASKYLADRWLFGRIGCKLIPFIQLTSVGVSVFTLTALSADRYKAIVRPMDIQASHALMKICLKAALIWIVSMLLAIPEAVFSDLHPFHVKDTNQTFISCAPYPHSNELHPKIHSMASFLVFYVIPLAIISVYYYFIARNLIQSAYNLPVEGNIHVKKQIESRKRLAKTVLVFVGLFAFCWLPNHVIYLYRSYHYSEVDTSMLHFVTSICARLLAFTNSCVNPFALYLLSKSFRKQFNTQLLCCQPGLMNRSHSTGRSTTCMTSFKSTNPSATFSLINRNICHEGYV

gastrin-releasing peptide [GRP]: in experiment [1], the “effect of GRP on frequency of sIPSCs (in words)” value is “failed to increase” and the “frequency of sIPSCs” value worked out at 5.64±0.67 Hz.

In the case of `NC1=N[C@H](O)[C@H]2[C@H]3O[C@]4(O)O[C@@H]([C@@H](O)[C@@]2(N1)[C@@H]4O)[C@]3(O)CO` [TTX, tetrodotoxin], at GRPR, the “effect of GRP on frequency of sIPSCs in the presence of TTX” value is on record as “blocking the effects of the agonist”.

With picrotoxin, the “block of sIPSCs” value with GABAA receptors is reported as “completely blocked”.
